Measured values as given in patent US9243029B2, “Crystalline oxidized glutathione and production method therefor” (Kyowa Hakko Bio Co., Ltd., priority 2010, dated 2016).

Test: Hygroscopic property (preservation stability) at 23° C., ambient pressure, humidity 70%
Type: physicochemical
Conditions: humidity of 70%
Source text: Hereinafter, the preservation stability (hygroscopic property) of the crystal of oxidized glutathione according to the present invention will be described in detail with reference to Test Example.

In the case of “oxidized glutathione [Reference Example 1]”, the “Hygroscopic property (moisture absorption / change in water content)” value is reported as “markedly absorbed moisture” and the Time until deliquesced is reported as 2 days.
